pIC50: −log10 of the molar value.
target: Human BTK enzyme, wild-type (Homo sapiens (Human), UniProt Q06187); assay: BTK Screening: Btk kinase activity, electrophoretic mobility shift assay (MSA); assay type: biochemical; details: 0.5 nM BTK enzyme, 50 μM ATP, 15 minutes pre-incubation, 3 hours at 25° C.
Procedure: Btk kinase activity was measured in vitro using an electrophoretic mobility shift assay (MSA). The ability of Btk to phosphorylate a fluorescent peptide substrate (FAM-GEEPLYWSFPAKKK-NH2) was measured. The kinase reactions were assembled in a total volume of 25 μL per well in 384 well plates. The following was added to each well: compound buffer (or control); enzyme buffer; and substrate buffer, as further described below.
Specifically the following was added: (1) compound buffer or control: 5μL of 5× compound buffer [(5× compound buffer comprised of: 1× Master Buffer, X μM test compound in 5% dimethyl sulfoxide; (2× Master Buffer comprised of 200 mM HEPES, pH7.5, 0.2% BSA, and 0.02% Triton X-100)]; and (2) enzyme buffer: 10 μL of 2.5× enzyme buffer (1× Master Buffer, 12.5 mM MgCl2, 2.5 mM DTT, 25 μM sodium orthovanadate, 25 μM beta-glycerophosphate, and 1.25 nM BTK enzyme). Human BTK enzyme Nanosyn-293HEK, wild-type, available from Nanosyn, Santa Clara, CA). Enzyme and compound were pre-incubated for 15 minutes. Additionally, the following was added: (3) substrate buffer: 10 μL of 2.5× substrate buffer (1× Master Buffer, […], and 2.5 μM of the peptide substrate FAM). Each plate was incubated at 25° C. for 3 hours. The reaction was terminated by adding to each well: 45 μL of 1.55× stop buffer (1× Master Buffer and 31 mM EDTA). The final reaction mixture was as follows: 100 mM HEPES, pH7.5; 0.1% BSA; 0.01% Triton X-100; 1 mM DTT; 5 mM MgCl2; 10 μM sodium orthovanadate; 10 μM beta-glycerophosphate; 50 μM ATP; 1% dimethyl sulfoxide (from compound); 1μM fluorescent peptide substrate and 0.5 nM BTK- enzyme. The terminated reactions were analyzed using a 12 channel LABCHIP® 3000 microfluidic detection instrument (available from Caliper Life Sciences, Waltham, MA). […] As substrate and product peptides were separated, two peaks of fluorescence were observed. Change in the relative fluorescence intensity of the substrate and product peaks was the parameter measured, reflecting enzyme activity. In the presence of an active compound, the ratio between product and substrate was altered. The signal of the product decreased, while the signal of the substrate increased. Capillary electrophoregrams (RDA acquisition files) were analyzed using HTS Well Analyzer software (available from Caliper Life Sciences, Waltham, MA).
Activity in each sample was determined as the product to sum ratio (PSR): P/(S+P), where P was the peak height of the product peptide and S was the peak height of the substrate peptide. For each compound, enzyme activity was measured at various concentrations (12 concentrations of compound spaced by 3× dilution intervals). Negative control samples (0% inhibition in the absence of an active compound) and positive control samples (100% inhibition, in the presence of 20 mM EDTA) were assembled in replicates of four and were used to calculate % inhibition values for each active compound at each concentration. Percent inhibition (Pinh) was determined using following equation: Pinh=(PSR0%−PSRinh)/(PSR0%−PSR100%)*100, where PSRinh was the product sum ratio in the presence of inhibitor, PSR0% was the average product sum ratio in the absence of active compound and PSR100% was the average product sum ratio in 100%-inhibition control samples.
The IC50 values of active compounds were determined by 4 parameter sigmoidal dose response model fitting of the inhibition curves (Pinh versus inhibitor concentration) using XLfit® 4 software (IDBS, Boston, MA). The IC50 values are reported in Table 2 in the BTK IC50 (nM) column.

Sequence of Human BTK enzyme, wild-type (Q06187 whole entry): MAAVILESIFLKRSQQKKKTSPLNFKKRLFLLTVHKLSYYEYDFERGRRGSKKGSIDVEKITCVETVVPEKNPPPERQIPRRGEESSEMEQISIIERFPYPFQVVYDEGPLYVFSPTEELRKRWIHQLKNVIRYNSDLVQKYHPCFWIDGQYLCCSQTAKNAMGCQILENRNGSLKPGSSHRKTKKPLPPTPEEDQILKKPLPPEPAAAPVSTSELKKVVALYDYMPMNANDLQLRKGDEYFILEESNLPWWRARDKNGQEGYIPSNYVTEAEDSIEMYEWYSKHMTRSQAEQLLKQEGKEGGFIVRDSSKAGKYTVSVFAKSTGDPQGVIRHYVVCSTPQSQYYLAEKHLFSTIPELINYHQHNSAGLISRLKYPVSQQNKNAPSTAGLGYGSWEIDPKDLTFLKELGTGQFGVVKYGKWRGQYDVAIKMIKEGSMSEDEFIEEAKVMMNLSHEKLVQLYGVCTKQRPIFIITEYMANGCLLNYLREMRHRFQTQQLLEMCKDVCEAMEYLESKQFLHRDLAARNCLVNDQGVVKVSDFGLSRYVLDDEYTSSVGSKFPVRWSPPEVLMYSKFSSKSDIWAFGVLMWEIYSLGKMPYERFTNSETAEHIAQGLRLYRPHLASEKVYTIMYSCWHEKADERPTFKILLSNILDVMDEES

| SMILES | pIC50 |
| --- | --- |
| Cc1cc(-c2cc(Nc3ccc(N4CCN(CCc5ccc(N6CCC(=O)NC6=O)cc5)C[C@H]4C)cn3)ncn2)ccc1[C@@H](C)NC(=O)c1nc(C(C)(C)C)no1 [Example 2, 3-tert-butyl-N-[(1R)-1-{4-[6-({5-[(2R)-4-{2-[4-(2,4-dioxo-1,3-diazinan-1-yl)phenyl]ethyl}-2-methylpiperazin-1-yl]pyridin-2-yl}amino)pyrimidin-4-yl]-2-methylphenyl}ethyl]-1,2,4-oxadiazole-5-carboxamide] | 9.89 |
| Cc1cc(-c2cc(Nc3ccc(N4CCN(CCc5ccc(N6CCC(=O)NC6=O)cc5)CC4)cn3)ncn2)ccc1[C@@H](C)NC(=O)c1nc(C(C)(C)C)no1 [Example 3, 3-tert-butyl-N-{(1R)-1-[4-(6-{[5-(4-{2-[4-(2,4-dioxo-1,3-diazinan-1-yl)phenyl]ethyl}piperazin-1-yl)pyridin-2-yl]amino}pyrimidin-4-yl)-2-methylphenyl]ethyl}-1,2,4-oxadiazole-5-carboxamide] | 10.47 |
| Cc1cc(-c2cc(Nc3ccc(N4CCN(CCc5ccc(N6CCC(=O)NC6=O)c(F)c5)C[C@@H]4C)cn3)ncn2)ccc1[C@@H](C)NC(=O)c1nc(C(C)(C)C)no1 [Example 4, 3-tert-butyl-N-[(1R)-1-{4-[6-({5-[(2S)-4-{2-[4-(2,4-dioxo-1,3-diazinan-1-yl)-3-fluorophenyl]ethyl}-2-methylpiperazin-1-yl]pyridin-2-yl}amino)pyrimidin-4-yl]-2-methylphenyl}ethyl]-1,2,4-oxadiazole-5-carboxamide] | 9.85 |
| Cc1cc(-c2cc(Nc3ccc(N4CCN(CCc5ccc(N6CCC(=O)NC6=O)c(F)c5)C[C@H]4C)cn3)ncn2)ccc1[C@@H](C)NC(=O)c1nc(C(C)(C)C)no1 [Example 5, 3-tert-butyl-N-[(1R)-1-{4-[6-({5-[(2R)-4-{2-[4-(2,4-dioxo-1,3-diazinan-1-yl)-3-fluorophenyl]ethyl}-2-methylpiperazin-1-yl]pyridin-2-yl}amino)pyrimidin-4-yl]-2-methylphenyl}ethyl]-1,2,4-oxadiazole-5-carboxamide] | 9.95 |
| CC[C@H]1CN(CCc2ccc(N3CCC(=O)NC3=O)cc2)CCN1c1ccc(Nc2cc(-c3ccc([C@@H](C)NC(=O)c4nc(C(C)(C)C)no4)c(C)c3)ncn2)nc1 [Example 6, 3-tert-butyl-N-[(1R)-1-{4-[6-({5-[(2S)-4-{2-[4-(2,4-dioxo-1,3-diazinan-1-yl)phenyl]ethyl}-2-ethylpiperazin-1-yl]pyridin-2-yl}amino)pyrimidin-4-yl]-2-methylphenyl}ethyl]-1,2,4-oxadiazole-5-carboxamide] | 10.39 |
| CC[C@H]1CN(CCc2ccc(N3CCC(=O)NC3=O)c(F)c2)CCN1c1ccc(Nc2cc(-c3ccc([C@@H](C)NC(=O)c4nc(C(C)(C)C)no4)c(C)c3)ncn2)nc1 [Example 7, 3-tert-butyl-N-[(1R)-1-{4-[6-({5-[(2S)-4-{2-[4-(2,4-dioxo-1,3-diazinan-1-yl)-3-fluorophenyl]ethyl}-2-ethylpiperazin-1-yl]pyridin-2-yl}amino)pyrimidin-4-yl]-2-methylphenyl}ethyl]-1,2,4-oxadiazole-5-carboxamide] | 10.01 |
| CC[C@@H]1CN(CCc2ccc(N3CCC(=O)NC3=O)cc2)CCN1c1ccc(Nc2cc(-c3ccc([C@@H](C)NC(=O)c4nc(C(C)(C)C)no4)c(C)c3)ncn2)nc1 [Example 8, 3-tert-butyl-N-[(1R)-1-{4-[6-({5-[(2R)-4-{2-[4-(2,4-dioxo-1,3-diazinan-1-yl)phenyl]ethyl}-2-ethylpiperazin-1-yl]pyridin-2-yl}amino)pyrimidin-4-yl]-2-methylphenyl}ethyl]-1,2,4-oxadiazole-5-carboxamide] | 10.09 |
| Cc1cc(-c2cc(Nc3ccc(N4CCN(CCc5ccc(N6CCC(=O)NC6=O)cc5)CC4(C)C)cn3)ncn2)ccc1[C@@H](C)NC(=O)c1nc(C(C)(C)C)no1 [Example 9, 3-tert-butyl-N-{(1R)-1-[4-(6-{[5-(4-{2-[4-(2,4-dioxo-1,3-diazinan-1-yl)phenyl]ethyl}-2,2-dimethylpiperazin-1-yl)pyridin-2-yl]amino}pyrimidin-4-yl)-2-methylphenyl]ethyl}-1,2,4-oxadiazole-5-carboxamide] | 10.01 |
| Cc1cc(-c2cc(Nc3ccc(N4CCN(CCc5ccc(N6CCC(=O)NC6=O)cc5)CC4)cn3)ncn2)c(F)cc1[C@@H](C)NC(=O)c1nc(C(C)(C)C)no1 [Example 12, 3-tert-butyl-N-{(1R)-1-[4-(6-{[5-(4-{2-[4-(2,4-dioxo-1,3-diazinan-1-yl)phenyl]ethyl}piperazin-1-yl)pyridin-2-yl]amino}pyrimidin-4-yl)-5-fluoro-2-methylphenyl]ethyl}-1,2,4-oxadiazole-5-carboxamide] | 10.44 |
| Cc1cc(-c2cc(Nc3ccc(N4CCN(CCc5ccc(N6CCC(=O)NC6=O)cc5)C[C@@H]4C(C)C)cn3)ncn2)ccc1[C@@H](C)NC(=O)c1nc(C(C)(C)C)no1 [Example 13, 3-tert-butyl-N-[(1R)-1-{4-[6-({5-[(2S)-4-{2-[4-(2,4-dioxo-1,3-diazinan-1-yl)phenyl]ethyl}-2-(propan-2-yl)piperazin-1-yl]pyridin-2-yl}amino)pyrimidin-4-yl]-2-methylphenyl}ethyl]-1,2,4-oxadiazole-5-carboxamide] | 9.85 |
| C[C@@H](NC(=O)c1nc(C(C)(C)C)no1)c1ccc(-c2cc(Nc3ccc(N4CCN(CCc5ccc(N6CCC(=O)NC6=O)cc5)C[C@@H]4C)cn3)ncn2)cc1Cl [Example 14, 3-tert-butyl-N-[(1R)-1-{2-chloro-4-[6-({5-[(2S)-4-{2-[4-(2,4-dioxo-1,3-diazinan-1-yl)phenyl]ethyl}-2-methylpiperazin-1-yl]pyridin-2-yl}amino)pyrimidin-4-yl]phenyl}ethyl]-1,2,4-oxadiazole-5-carboxamide] | 10.28 |
| Cc1cc(-c2cc(Nc3ccc(N4CCN(CCc5ccc(N6CCC(=O)NC6=O)cc5)C[C@@H]4C)cc3)ncn2)ccc1[C@@H](C)NC(=O)c1nc(C(C)(C)C)no1 [Example 18] | 9.30 |
| Cc1cc(-c2cc(Nc3ccc(CCN4CCN(c5ccc(N6CCC(=O)NC6=O)cc5)CC4)cn3)ncn2)ccc1[C@@H](C)NC(=O)c1nc(C(C)(C)C)no1 [Example 19] | 10.00 |

— patent publication US20240109877A1, “PYRIMIDINES FOR DEGRADING BRUTON'S TYROSINE KINASE” (AbbVie Inc., priority 2022, published 2024)
